Measured values published in patent US6962941B2, “Tryptase inhibitors” (Altana Pharma AG, priority 2001, dated 2005).

Biological target: human tryptase
Experiment: Inhibition of human tryptase (apparent dissociation constant, tos-Gly-Pro-Arg-pNA cleavage)
Format: biochemical
Conditions: pKiapp = -log Kiapp (mol/l), in the presence of substrate, heparin 0.1-50 μg/ml
Excerpt: The documented pathophysiological effects of mast cell tryptase are brought about directly by the enzymatic activity of the protease. Accordingly, they are reduced or blocked by inhibitors which inhibit the enzymatic activity of tryptase. A suitable measure of the affinity of a reversible inhibitor for the target protease is the equilibrium dissociation constant Ki of the enzyme/inhibitor complex. This value of Ki can be determined via the influence of the inhibitor on the tryptase-induced cleavage of a chromogenic peptide-p-nitroanilide substrate or of a fluorogenic peptide-aminomethylcoumarin substrate.
The dissociation constants for the tryptase/inhibitor complexes are determined under equilibrium conditions in accordance with the general proposals of Bieth (Bieth J. G., Pathophysiological Interpretation of kinetic constants of protease inhibitors, Bull. Europ. Physiopath. Resp. 16:183-195, 1980) and the methods of Sommerhoff et al. (Sommerhoff C. P. et al., A Kazal-type inhibitor of human mast cell tryptase: Isolation from the medical leech Hirudo medicinalis, characterization, and sequence analysis, Biol. Chem. Hoppe-Seyler 375: 685-694, 1994).
Human tryptase is prepared pure from lung tissue or is prepared by recombination; the specific activity of the protease which has been determined by titration is normally more than 85% of the theoretical value. […]

`COC(=O)C1CC(NC(=O)OCC#CCOC(=O)NC2CC(C(=O)OC)N(C(=O)CCc3cccc(CN)c3)C2)CN1C(=O)CCc1cccc(CN)c1.Cl.Cl` (stereo not shown) [Compound 1, 1,4-Bis-{N-[3-(3-aminomethylphenylproplonyl)-2-methoxycarbonylpyrrolidin-4-yl]aminocarbonyloxy}-2-butyne dihydrochloride] was tested, and the pKiapp was 8.35.
